Experimental data as given in patent US20070128217A1 (priority 2003, published 2007).

Legend:
[1] = test system: antibodies in sera from SARS patients (sera 1a, 1b, 2, 6, 37, 62, London, SARS-yellow, SARS-green); type: binding, human; design: Binding of serum 6 to linear peptides of protein X1 of SARS-CoV Urbani / Binding of serum 37 to linear peptides of protein X1 of SARS-CoV Urbani / Binding of serum 6 to looped/cyclic peptide (PEPSCAN-ELISA) / Binding of serum 37 to looped/cyclic peptide (PEPSCAN-ELISA) / Binding of serum 37 to looped/cyclic peptides of protein X1 of SARS-CoV Urbani / Binding of serum 6 to linear peptides of protein X2 / Binding of serum 37 to linear peptides of protein X2 / Binding of serum 37 to looped/cyclic peptides of protein X2 of SARS-CoV Urbani / Binding of serum 6 to linear peptides of protein M of SARS-CoV Urbani / Binding of serum 37 to linear peptides of protein M of SARS-CoV Urbani / Binding of serum 6 to looped/cyclic peptides of protein M of SARS-CoV Urbani / Binding of serum 37 to looped/cyclic peptides of protein M of SARS-CoV Urbani / Binding of serum 6 to linear peptides of protein X3 of SARS-CoV Urbani / Binding of serum 37 to linear peptides of protein X3 of SARS-CoV Urbani / Binding of serum 37 to looped/cyclic peptides of protein X3 of SARS-CoV Urbani / Binding of serum 6 to linear peptides of protein X4 of SARS-CoV Urbani / Binding of serum 37 to linear peptides of protein X4 of SARS-CoV Urbani / Binding of serum 37 to looped/cyclic peptides of protein X4 of SARS-CoV Urbani / Binding of serum 6 to linear peptides of protein X5 of SARS-CoV Urbani / Binding of serum 37 to linear peptides of protein X5 of SARS-CoV Urbani / Binding of serum 37 to looped/cyclic peptides of protein X5 of SARS-CoV Urbani / Binding of serum 6 to linear peptides of protein N of SARS-CoV Urbani / Binding of serum 37 to linear peptides of protein N of SARS-CoV Urbani / Binding of serum 6 to linear peptide (PEPSCAN-ELISA) / Binding of serum 1a to looped/cyclic peptides of protein N of SARS-CoV Urbani / Binding of serum 1b to looped/cyclic peptides of protein N of SARS-CoV Urbani / Binding of serum 2 to looped/cyclic peptides of protein N of SARS-CoV Urbani / Binding of serum 6 to looped/cyclic peptides of protein N of SARS-CoV Urbani / Binding of serum 37 to looped/cyclic peptides of protein N of SARS-CoV Urbani / Binding of serum 62 to looped/cyclic peptides of protein N of SARS-CoV Urbani / Binding of serum London to looped/cyclic peptides of protein N of SARS-CoV Urbani / Binding of serum SARS-green to looped/cyclic peptides of protein N of SARS-CoV Urbani: unit not given here
[2] = test system: control sera (pooled serum of ten healthy LUMC hospital workers; commercial negative donor pooled serum from the Dutch bloodbank); type: binding, human; design: Binding of Control serum LUMC to linear peptides / Binding of Control serum Blood-bank to linear peptides / Binding of Control serum LUMC to looped peptides / Binding of Control Serum Blood-Bank to Looped peptides / Binding of Control serum LUMC to linear peptides of the protein M of SARS-CoV Urbani / Binding of Control serum Blood-bank to linear peptides of the protein M of SARS-CoV Urbani / Binding of Control serum LUMC to looped peptides of the protein M of SARS-CoV Urbani / Binding of Control Serum Blood-Bank to Looped peptides of the protein M of SARS-CoV Urbani: unit not given here
[3] = test system: rabbit serum obtained by immunizing a rabbit with the SARS-CoV strain Frankfurt 1; type: binding; design: Binding of a rabbit serum to linear peptides / Binding of a rabbit serum to looped peptides / Rabbit serum linear peptides / Rabbit serum looped peptides / Binding of a rabbit serum to linear peptides of protein N of SARS-CoV Urbani (Rabbit serum linear peptides) / Binding of a rabbit serum to looped/cyclic peptides of protein N of SARS-CoV Urbani (Rabbit serum looped peptides): unit not given here

With FLYIIKLVFLWLLWP the “Binding of serum 1a to linear peptides of protein M of SARS-CoV Urbani” value [1] was 0.8, the “Binding of serum 1b to linear peptides of protein M of SARS-CoV Urbani” value [1] was 0.5 and the “Binding of serum 2 to linear peptides of protein M of SARS-CoV Urbani” value [1] was 1.0. For the same sequence, the “Binding of serum 6 to linear peptides of protein M of SARS-CoV Urbani” value [1] was 0.3, the “Binding of serum 37 to linear peptides of protein M of SARS-CoV Urbani” value [1] was 0.8 and the “Binding of serum 62 to linear peptides of protein M of SARS-CoV Urbani” value [1] was 0.9. The “Binding of serum London to linear peptides of protein M of SARS-CoV Urbani” value [1] was 0.3, the “Binding of serum SARS-green to linear peptides of protein M of SARS-CoV Urbani” value [1] was 0.3 and the “Binding of serum SARS-yellow to linear peptides of protein M of SARS-CoV Urbani” value [1] was 0.1. The “Recognition of the peptide by sera of SARS-CoV infected individuals, and form (linear, looped/cyclic) in which it is recognized” value [1] was “recognized in looped/cyclic form”, the “Binding of Control Serum Blood-Bank to Looped peptides of the protein M of SARS-CoV Urbani” value [2] was 0.8 and the “Binding of Control serum Blood-bank to linear peptides of the protein M of SARS-CoV Urbani” value [2] was 0.8. The “Binding of Control serum LUMC to linear peptides of the protein M of SARS-CoV Urbani” value [2] was 0.4, the “Binding of Control serum LUMC to looped peptides of the protein M of SARS-CoV Urbani” value [2] was 0.9 and the “Rabbit serum linear peptides” value [3] was 0.4. The “Rabbit serum looped peptides” value [3] was 0.4.
With FLYLYALIYFLQCIN the “Binding of serum 1a to linear peptides of protein X1 of SARS-CoV Urbani” value [1] was 0.7, the “Binding of serum 1a to looped/cyclic peptide (PEPSCAN-ELISA)” value [1] was 0.4 and the “Binding of serum 1b to linear peptides of protein X1 of SARS-CoV Urbani” value [1] was 0.5. The “Binding of serum 1b to looped/cyclic peptide (PEPSCAN-ELISA)” value [1] was 0.3, the “Binding of serum 2 to linear peptides of protein X1 of SARS-CoV Urbani” value [1] was 0.5 and the “Binding of serum 2 to looped/cyclic peptide (PEPSCAN-ELISA)” value [1] was 0.3. The “Binding of serum 6 to linear peptides of protein X1 of SARS-CoV Urbani” value [1] was 0.4, the “Binding of serum 6 to looped/cyclic peptide (PEPSCAN-ELISA)” value [1] was 0.2 and the “Binding of serum 37 to linear peptides of protein X1 of SARS-CoV Urbani” value [1] was 0.5. The “Binding of serum 37 to looped/cyclic peptide (PEPSCAN-ELISA)” value [1] was 0.4, the “Binding of serum 62 to linear peptides of protein X1 of SARS-CoV Urbani” value [1] was 0.6 and the “Binding of serum 62 to looped/cyclic peptide (PEPSCAN-ELISA)” value [1] was 0.4. For the same sequence, the “Binding of serum London to linear peptides of protein X1 of SARS-CoV Urbani” value [1] was 0.2, the “Binding of serum London to looped/cyclic peptide (PEPSCAN-ELISA)” value [1] was 0.2 and the “Binding of serum SARS-green to linear peptides of protein X1 of SARS-CoV Urbani” value [1] was 0.2. For the same sequence, the “Binding of serum SARS-green to looped/cyclic peptide (PEPSCAN-ELISA)” value [1] was 0.2, the “Binding of serum SARS-yellow to linear peptides of protein X1 of SARS-CoV Urbani” value [1] was 0.5 and the “Binding of serum SARS-yellow to looped/cyclic peptide (PEPSCAN-ELISA)” value [1] was 0.3. For the same sequence, the “Binding of Control Serum Blood-Bank to Looped peptides” value [2] was 0.5, the “Binding of Control serum Blood-bank to linear peptides” value [2] was 0.5 and the “Binding of Control serum LUMC to linear peptides” value [2] was 0.5. The “Binding of Control serum LUMC to looped peptides” value [2] was 0.4, the “Binding of a rabbit serum to linear peptides” value [3] was 0.1 and the “Binding of a rabbit serum to looped peptides” value [3] was 0.4.
With FMRFFTLGSITAQPV the “Binding of serum 1a to linear peptides of protein X1 of SARS-CoV Urbani” value [1] was 0.8, the “Binding of serum 1a to looped/cyclic peptide (PEPSCAN-ELISA)” value [1] was 0.5 and the “Binding of serum 1b to linear peptides of protein X1 of SARS-CoV Urbani” value [1] was 0.6. For the same sequence, the “Binding of serum 1b to looped/cyclic peptide (PEPSCAN-ELISA)” value [1] was 0.3, the “Binding of serum 2 to linear peptides of protein X1 of SARS-CoV Urbani” value [1] was 0.8 and the “Binding of serum 2 to looped/cyclic peptide (PEPSCAN-ELISA)” value [1] was 0.4. The “Binding of serum 6 to linear peptides of protein X1 of SARS-CoV Urbani” value [1] was 0.5, the “Binding of serum 6 to looped/cyclic peptide (PEPSCAN-ELISA)” value [1] was 0.4 and the “Binding of serum 37 to linear peptides of protein X1 of SARS-CoV Urbani” value [1] was 0.7. For the same sequence, the “Binding of serum 37 to looped/cyclic peptide (PEPSCAN-ELISA)” value [1] was 0.5, the “Binding of serum 62 to linear peptides of protein X1 of SARS-CoV Urbani” value [1] was 0.7 and the “Binding of serum 62 to looped/cyclic peptide (PEPSCAN-ELISA)” value [1] was 0.5. The “Binding of serum London to linear peptides of protein X1 of SARS-CoV Urbani” value [1] was 0.3, the “Binding of serum London to looped/cyclic peptide (PEPSCAN-ELISA)” value [1] was 0.2 and the “Binding of serum SARS-green to linear peptides of protein X1 of SARS-CoV Urbani” value [1] was 0.3. For the same sequence, the “Binding of serum SARS-green to looped/cyclic peptide (PEPSCAN-ELISA)” value [1] was 0.2, the “Binding of serum SARS-yellow to linear peptides of protein X1 of SARS-CoV Urbani” value [1] was 0.7 and the “Binding of serum SARS-yellow to looped/cyclic peptide (PEPSCAN-ELISA)” value [1] was 0.3. For the same sequence, the “Binding of Control Serum Blood-Bank to Looped peptides” value [2] was 0.6, the “Binding of Control serum Blood-bank to linear peptides” value [2] was 0.7 and the “Binding of Control serum LUMC to linear peptides” value [2] was 0.7. The “Binding of Control serum LUMC to looped peptides” value [2] was 0.6, the “Binding of a rabbit serum to linear peptides” value [3] was 0.3 and the “Binding of a rabbit serum to looped peptides” value [3] was 0.4.
